The values that follow come from DBAASP.

Converted amounts (≈) assume the structure as drawn. “And” between values parts separate entries of the source, which are not always exact repeats. Identical values can stand only once.

Test systems include Aureobasidium pullulans; Micrococcus luteus; Bacillus megaterium.
Common to all, as to assay: ≥ marks a high value that may be exact or a test limit, other limits are often not marked, values filed in µg/mL are converted to µM
The subject of experiment [1] is Bacillus subtilis ATCC 23857.
In experiment [2] the test system is Escherichia coli ATCC 25922.
Experiment [3] has as its system Corynebacterium glutamicum ATCC 13032.
The subject of experiment [4] is Staphylococcus aureus ATCC 9144.
Experiment [5] deals with Candida albicans ATCC 10231.
For experiment [6], the system named is Pseudomonas aeruginosa ATCC 27853.
Experiment [7] has as its system Fusarium verticillioides KCTC 6149.
For experiment [8], the system named is Candida tropicalis KCTC 7221.
Experiment [9] has as its system Candida parapsilosis CCARM 14016.
In experiment [10] the test system is Candida albicans KCTC 7270.
Experiment [11] has as its system Candida krusei CCARM 14017.
The subject of experiment [12] is Fusarium oxysporum KCTC 16909.
In experiment [13] the test system is Acinetobacter baumannii ATCC 19606.
Experiment [14] has as its system Candida albicans ATCC 90028.
Experiment [15] deals with Bacillus subtilis ATCC 6051.
Experiment [16] relates to Enterococcus faecium ATCC 35667.
Experiment [17] relates to Staphylococcus aureus ATCC 6538.
For experiment [18], the system named is Streptococcus pneumoniae ATCC 700677.
For experiment [19], the system named is Staphylococcus aureus ATCC 43300.
In experiment [20] the test system is Cryptococcus neoformans ATCC 208821.
Experiment [21] relates to Klebsiella pneumoniae ATCC 700603.
The subject of experiment [22] is Candida tropicalis ATCC 750.
Experiment [23] deals with Bacillus subtilis CCT 2576.
Experiment [24] relates to Staphylococcus aureus ATCC 29213.
The subject of experiment [25] is Pseudomonas aeruginosa ATCC 15442.
Experiment [26] has as its system Staphylococcus aureus VRSA1.
For experiment [27], the system named is Bacillus megaterium ATCC 13632.
The test system of experiment [28] is Escherichia coli LMG 15862.
Experiment [29] has as its system Acinetobacter baumannii LMG 01041.
For experiment [30], the system named is Pseudomonas aeruginosa LMG 6395.
In experiment [31] the test system is Klebsiella pneumoniae LMG 20218.
In experiment [32] the test system is Klebsiella aerogenes LMG 02094.
Experiment [33] has as its system Escherichia coli NEB5alpha.

Broadly, the MIC is the smallest concentration in the dilution series that meets the test's criterion for growth inhibition. Regarding `C[C@H](NC(=O)[C@H](CCCCN)NC(=O)[C@H](Cc1c[nH]c2ccccc12)NC(=O)[C@H](Cc1c[nH]c2ccccc12)NC(=O)CNC(=O)[C@H](Cc1c[nH]c2ccccc12)NC(=O)[C@H](CCCCN)NC(=O)[C@H](CCCCN)NC(=O)CN)C(=O)N[C@@H](CCCCN)C(N)=O` [GKKWGWWKAK], the MIC with Aureobasidium pullulans was not below 49 µM; in experiment [1], 3.06 µM (≈ 3.9 µg/mL); in [2], 49 µM (≈ 62.5 µg/mL); in experiment [3], 3.06 µM (≈ 3.9 µg/mL); in [4], not below 196 µM; in experiment [5] it was 49 µM (≈ 62.5 µg/mL). The values for the MIC (in experiment [6]; with Micrococcus luteus; in the experiment with Bacillus megaterium) were more than 196 µM, not below 49 µM and 0.785 µM (≈ 0.999 µg/mL), respectively.
As for `CC[C@H](C)[C@H](NC(=O)[C@H](C)NC(=O)[C@H](CCC(=O)O)NC(=O)[C@H](Cc1cnc[nH]1)NC(=O)[C@H](CCCCN)NC(=O)CNC(=O)[C@H](CCC(N)=O)NC(=O)[C@H](CCCCN)NC(=O)[C@@H](NC(=O)[C@H](CCCCN)NC(=O)[C@H](CCCCN)NC(=O)[C@H](CC(C)C)NC(=O)[C@H](C)NC(=O)[C@H](CC(N)=O)NC(=O)[C@H](CC(C)C)NC(=O)CN)C(C)C)C(=O)N[C@@H](CCCCN)C(=O)N[C@@H](CC(C)C)C(=O)N[C@H](C(=O)N[C@@H](CC(N)=O)C(=O)N[C@@H](CC(N)=O)C(=O)N[C@@H](Cc1cnc[nH]1)C(=O)N[C@H](C(=O)N[C@@H](CCC(N)=O)C(N)=O)C(C)C)[C@@H](C)CC` [GLNALKKVKQGKHEAIKLINNHVQ], the MIC in experiment [7] was not below 64 µM; in [8] it was 8 µM and 16 µM; in experiment [9], not below 64 µM; in experiment [10], not below 64 µM; in experiment [11] it was ≥ 48 µM and 16 µM; in experiment [12], 6 µM and 16 µM.
Turning to `CC[C@H](C)[C@H](N)C(=O)N[C@@H](CC(N)=O)C(=O)N[C@@H](Cc1c[nH]c2ccccc12)C(=O)N[C@@H](CC(C)C)C(=O)N[C@@H](CCCCN)C(=O)N[C@@H](CC(C)C)C(=O)NCC(=O)N[C@@H](CCCCN)C(=O)N[C@@H](C)C(=O)N[C@H](C(=O)N[C@H](C(=O)N[C@@H](CC(=O)O)C(=O)N[C@@H](C)C(=O)N[C@@H](CC(C)C)C(N)=O)[C@@H](C)CC)[C@@H](C)CC` [INWLKLGKAIIDAL], the MIC in experiment [13] was found to be 5.1 µM (≈ 8 µg/mL); in experiment [14] it was 7.22 µM (≈ 11.3 µg/mL); in experiment [15], 2.55 µM (≈ 4 µg/mL); in experiment [16], 3.61 µM (≈ 5.65 µg/mL); in experiment [17], 122 µM (≈ 191 µg/mL); in experiment [18], 5.1 µM (≈ 8 µg/mL). Besides, the minimum inhibitory concentration (MIC) was 5.1 µM (≈ 8 µg/mL) in experiment [19]; 2.55 µM (≈ 4 µg/mL) in experiment [20]; 81.6 µM (≈ 128 µg/mL) in experiment [21]; 1.28 µM (≈ 2 µg/mL) in experiment [22]; not below 151 µM in experiment [23]; 115 µM (≈ 181 µg/mL) in experiment [6]. The MIC in [24] was 5.1 µM (≈ 8 µg/mL); in experiment [25], not below 164 µM; in [26], 3.61 µM (≈ 5.65 µg/mL); in [27] it was 2.55 µM (≈ 4 µg/mL).
With `CC[C@H](C)[C@H](NC(=O)[C@H](CCCN=C(N)N)NC(=O)[C@H](CCC(N)=O)NC(=O)[C@@H](NC(=O)[C@@H](NC(=O)[C@@H](N)CCCN=C(N)N)[C@@H](C)CC)C(C)C)C(=O)N[C@@H](CCCCN)C(=O)N[C@@H](CCCCN)C(=O)N[C@@H](Cc1c[nH]c2ccccc12)C(=O)N[C@@H](CC(C)C)C(N)=O` [RIVQRIKKWL], the MIC in [28] is not below 32 µM; in [29] it was not below 128 µM; in experiment [30], 16 µM (≈ 21.4 µg/mL); in experiment [31] it was not below 64 µM; in experiment [32] it was not below 256 µM.
For `CC[C@H](C)[C@H](NC(=O)[C@H](C)NC(=O)CNC(=O)[C@H](CCCCN)NC(=O)[C@H](CCC(=O)O)NC(=O)[C@H](CCC(=O)O)NC(=O)[C@H](CC(=O)O)NC(=O)[C@H](CCC(=O)O)NC(=O)[C@H](CC(=O)O)NC(=O)[C@H](CCCN=C(N)N)NC(=O)CNC(=O)[C@H](CCC(N)=O)NC(=O)[C@H](CC(C)C)NC(=O)[C@H](CCCCN)NC(=O)[C@H](CC(=O)O)NC(=O)[C@@H](NC(=O)[C@@H](NC(=O)[C@H](Cc1cnc[nH]1)NC(=O)[C@H](CCCN=C(N)N)NC(=O)[C@H](CC(N)=O)NC(=O)[C@@H](N)C(C)C)[C@@H](C)CC)C(C)C)C(=O)N[C@H](C(=O)N[C@@H](CCCCN)C(=O)N[C@H](C(=O)N[C@@H](CCCCN)C(=O)NCC(=O)NCC(=O)N[C@@H](CC(C)C)C(=O)O)C(C)C)C(C)C` [VNRHIVDKLQGRDEDEEKGAIVKVKGGL], the minimal inhibitory concentration (MIC) in experiment [15] and in experiment [33] was not below 500 µM throughout.
